# Test results published in a melting point compilation (Tetko et al.; mined from patent text by program, amines drawn as free bases though some values may be those of a salt).
row,melting point [°C],SMILES
1,147 to 148,C=CCN1C(C)(C)CC(=C2CC(C)(C)N(CC=C)C(C)(C)C2)CC1(C)C
2,136 to 141,COc1ccc(-c2nnn(-c3cc(C)on3)c2N)cc1
3,141 to 144,CN(C)C(=O)Nc1ccc2c(c1)C(CN1CCC(c3ccc(F)cc3)CC1)CC2 (centres undefined)
4,159 to 161,CC(=O)c1ccc(S(=O)(=O)n2c(CCC(=O)O)cc3cc(Cl)ccc32)cc1
5,79 to 82,CC(C)CC1(C)NCCNC1=O (centres undefined)
6,157,CC(=O)OC1CSC(Oc2cccc3conc23)C(OC(C)=O)C1OC(C)=O (centres undefined)
7,144 to 145,COc1cc(COc2nn(Cc3ccccc3)cc2C(C)=O)ccc1OCc1nc(-c2ccco2)oc1C
8,121 to 123,O=C(Cc1ccccc1Nc1c(Cl)cccc1Cl)OCc1ccncc1
9,88 to 90,CNCC(O)COc1cccc(Nc2cc(Nc3cccc(C)c3)ncn2)c1 (centres undefined)
10,122 to 124,C#CCOc1cc(O)c2c(c1)OC(C)(C)CC2=O
11,150,COc1nc(OC)c(C=O)c(N(C)C)n1
12,171,CCCN(C(N)=S)C(c1ccncc1)C1CC1 (centres undefined)
13,124 to 125,CCCCCCCCCCCCCCCCN(CCCCCCCCCCCCCCCC)C(CCCCN)C(=O)O (centres undefined)
14,142 to 144,O=S(=O)(Nc1ccc2c(OCc3ccc(Cl)cc3Cl)cccc2c1)C(F)(F)F
15,208 to 210,CCCCNC(=O)NS(=O)(=O)c1ccc(CCNC(=O)N2Cc3ccc(Cl)cc3C2=O)cc1
16,> 270,O=C(O)Cn1cc(-c2ccc3nnn(Cc4ccc5ncccc5c4)c3n2)cn1
17,131 to 133,Nc1ccc(C(=O)C[N+](=O)[O-])c(Cl)c1
18,147 to 148,c1ccc(N2CCN(CC[C@H]3CC[C@H](c4c[nH]c5ccccc54)CC3)CC2)nc1
19,86 to 89,CCOC(=O)c1sc(-c2cccn2C)nc1-c1ccccc1
20,150,C=Cc1cnc(-c2ncccn2)nc1
21,132 to 134,CC#CC1Cc2ccc(C(=O)CCC(=O)N3CCC(c4ccc(Cl)cc4)CC3)cc2CCN1 (centres undefined)
22,187 to 202,Nc1cccc(-c2ccc(C3(O)C4CCC3CN(Cc3ccco3)C4)cc2)n1 (centres undefined)
23,70 to 71,COC(=O)C1CCc2onc(-c3ccc(Cl)cc3)c2CC1 (centres undefined)
24,73 to 80,CC(=O)OC1Oc2ccc(Br)cc2C1(C)C (centres undefined)

row,melting point [°C],SMILES
1,206 to 208,CN1CCC(C2Nc3cc(Br)ccc3N3CCc4cccc2c43)CC1 (centres undefined)
2,123 to 124,CCCc1nn(-c2ccc(C(F)(F)F)cn2)cc1CCCCOc1cc(CCC(=O)O)n(-c2ccccc2)n1
3,89 to 90,Cc1cc(CCCCCCCOc2ccc(C3=NCCO3)cc2)on1
4,118 to 120,Cc1oc2c(NC(=O)c3c(C(=O)OC(C)C)cccc3[N+](=O)[O-])cccc2c1C(C)(C)O
5,237 to 247,O=C(O)c1cc2c(c(-c3ccccc3)c1)C(=O)OC2=S
6,202 to 204,CC(=O)Nc1nc(CCc2ccc(N)cc2)c(-c2ccc(S(C)(=O)=O)cc2)s1
7,186 to 188,O=C1c2cc3cc(O)ccc3n2CC1CC1CCN(Cc2ccccc2)CC1 (centres undefined)
8,71 to 75,CCCc1c(OCCOCCOc2ccc3ccc(OCCCC(=O)O)cc3c2C(C)=O)ccc(C(C)=O)c1O
9,147,CCOc1ccc2[nH]c(=O)sc2c1
10,178 to 179,CCOC(=O)/C=C/C1N(C(C)C)C(=O)c2ccccc2C1(O)c1ccc(F)cc1OC (centres undefined)
11,303 to 307,O=C(O)CCc1ccc(OCC2CCN(c3ccncc3)CC2)cc1
12,166 to 168,CCOC(=O)C1(C(=O)OCC)CCC2(c3cc(OC)c(OC)cc3CCN2C(C)=O)C(C2c3cc(OC)c(OC)cc3CCN2C)C1 (centres undefined)
13,178 to 179,CN(C)c1nc(N)nc(-c2cc(Cl)ccc2Cl)n1
14,132 to 133,COc1ccc(-c2cc(NC(=O)CCCCN3CCCN(C(C)=O)CC3)n[nH]2)cc1
15,196,CCOc1ccc(F)cc1C(=O)c1sc2ncc(C#N)cc2c1N
16,80,O=C1CC(c2ccccc2)c2cccc(O)c21 (centres undefined)
17,130 to 132,CN1CCCCC1CCCc1ccccc1NC(=O)C=Cc1ccccc1 (centres undefined)
18,103,O=c1ncc(F)cn1COCc1ccc(Cl)cc1
19,289,COc1cc(S(N)(=O)=O)cnc1N=Nc1cc(OC(C)C)c2ccccc2c1O
20,153 to 157,CC(Oc1cc2sc(NC(=O)CCCN3CCCC3)nc2cc1F)c1c(Cl)ccc(F)c1Cl (centres undefined)
21,210,Fc1cccc(Cl)c1-c1c(Cl)cc(Cl)nc1Cl
22,132 to 135,CCOC(=O)c1nc(Cl)n2c1c(Cl)nc1ccccc12
23,192 to 194,COc1cc(OC)c2c(=O)c(O)c(-c3ccc(OC)c(OC)c3)oc2c1
24,262 to 264,CCCCCCCCc1ccc2nc(N)nc(N)c2c1C

row,melting point [°C],SMILES
1,128,O=C(c1ccncc1)c1cc(-c2cccnc2)c(N2CCOCC2)s1
2,134 to 135,CC(O)=C(C#N)C(=O)Nc1ccc(C(C)(C)C)cc1
3,118 to 119,CCC1(O)CC(=O)OCc2c1cc[nH]c2=O (centres undefined)
4,117 to 118,Cc1ccc(C2c3c(C)cc(C)c(C)c3OC2(C)C)cc1 (centres undefined)
5,321 to 323,CN(C)c1ccc2c(c1)C(=O)CC(c1ccc(O)cc1)=N2
6,183 to 184,COc1ccc(C(=O)Nc2ccccc2)cc1Nc1cccc(C(F)(F)F)c1
7,154 to 157,CCCCCS(=O)(=O)NC(=O)/C=C/c1cc(OC2CCOCC2)nn1Cc1ccc(Cl)cc1Cl
8,76 to 77,O=C1c2ccccc2C2(CCCC2)C(=O)N1CCO
9,84 to 92,O=C1CC(c2ccccc2)c2ccc(Cl)cc21 (centres undefined)
10,76,O=[N+]([O-])c1cc(C(F)(F)F)ccc1C(O)c1cnoc1C1CC1 (centres undefined)
11,69.5,Cc1cccc(C)c1NC(=O)CCNCCNC(C)C
12,215 to 216,Oc1ccc(-c2cn(-c3ccc(C(F)(F)F)cc3F)nn2)cc1
13,174 to 175,CCOC(=O)c1cc(=O)nc2n1-c1ccccc1OC2
14,112 to 114,Cc1ccccc1N1CCN(S(=O)(=O)CC23CCC(CC2=O)C3(C)C)CC1 (centres undefined)
15,212 to 215,CCn1cc(C(=O)O)c(=O)c2cc(F)c(N3CCOC(CCl)C3)c(F)c21 (centres undefined)
16,135 to 137,O=C(c1c(F)cccc1F)N1CNCN(c2ccc(Oc3ccc(C(F)(F)F)cc3Cl)cc2F)C1=O
17,185,CCC(Cc1c(I)cc(I)c(NC(=O)CNCCNCCN)c1I)C(=O)O (centres undefined)
18,98 to 99,O=C(O)c1c(F)c(F)cc([N+](=O)[O-])c1F
19,181 to 182,CC(C)(C)S(=O)(=O)c1ccc(C(=O)O)c(Cl)c1
20,232 to 234,Cc1cccc2ncc(-c3nnnn3C)c(=O)n12
21,184 to 185,O=c1ccc(-c2c(-c3ccccc3)nn3ccccc23)nn1C1CCN(Cc2ccccc2)CC1
22,232 to 234,CCOC(=O)c1[nH]c2cc(Cl)cc(Cl)c2c1NCCC(=O)c1ccc(C(F)(F)F)cc1
23,88 to 90,CC(CCCc1ccccc1)Oc1cc(O)c2c(c1)NCCC2=O (centres undefined)
24,115,CC(O)Cc1cc(N)cc([N+](=O)[O-])c1N (centres undefined)

row,melting point [°C],SMILES
1,126 to 127,CNc1ccc(CO)cc1[N+](=O)[O-]
2,178 to 182,CN1CCCCC1CCc1ccccc1NC(=O)c1ccc(O)cc1 (centres undefined)
3,157 to 158,O=C1NC(=O)C(c2ccc3c(c2)CCCC3)S1 (centres undefined)
4,130,CC(O)C(O)Cc1cc(C(N)=O)ccc1C(N)=O (centres undefined)
5,282 to 285,O=C1Nc2cccc(F)c2C12COc1cc3c(cc12)OCCO3 (centres undefined)
6,67 to 71,Cc1oc(-c2cccc(-c3ccccc3)c2)nc1CCOc1cccc(OC(C)(C)C(=O)O)c1
7,226 to 230,COCc1cc2c(Nc3cccc(Cl)c3)ncnc2[nH]1
8,228 to 231,S=C1NC(c2ccc(Cl)cc2)c2ccccc2C1CCN1CCOCC1 (centres undefined)
9,78 to 80,CC(=O)NC[C@H]1CN(c2ccc(N3CCC4(CC3)CC4=S=O)c(F)c2)C(=O)O1
10,129 to 131,CCN1CN(C)CN(c2cc(Cl)ccc2C)C1=S
11,78,O=C(Cc1ccccc1)NCO
12,109 to 111,CN(C)CCCOc1ccc(C(=O)NN)cc1F
13,227 to 228,O=C1CCC2(CN1)C(=O)C(=O)c1ccccc12 (centres undefined)
14,126 to 128,Cc1ccc2c(NCc3ccc(NC(=O)C4CCN(Cc5ccc(C(F)(F)F)cc5)CC4)cc3)nc(N(C)C)nc2c1
15,61 to 62,CC(C)(C)OC(=O)NCCc1ccc(O)cc1
16,229 to 230,COc1ccc(-c2[nH]c(-c3ccc([N+](=O)[O-])c(C)c3)nc2C(=O)O)cc1
17,305,Cn1cc(O)c(=O)c2ccc(C#N)cc21
18,115 to 116,Clc1cc(Cl)c2nc(SCc3ccccc3)nn2c1
19,50 to 52,CCCc1c(OCCCOc2cc(O)c(-c3ccc(F)cc3)cc2CC)cccc1C(=O)c1ccccc1C(=O)O
20,> 300,COc1ccc2nc(O)c(O)nc2c1
21,150 to 151,Cc1cccc2c(=O)[nH]c(CCCN3CCC[C@@H]3CO)cc12
22,102,CC(=O)c1cc(I)c2c(c1)C=CC(C)(C)O2
23,115 to 117,CC(C)c1nc(COCc2ccccc2)n(CF)c1Sc1cc(Cl)cc(Cl)c1
24,203 to 205,O=Cc1cc2n(c1)Cc1ccccc1-n1ccnc1-2

row,SMILES,melting point [°C]
1,CC1CC(=O)C=C2CCC3C4CCC(=O)C4(C)CCC3C21C (centres undefined),154
2,O=[PH](c1ccc2c(c1)OCO2)c1ccc2c(c1)OCO2,128
3,CCP(CC)c1ccc(Cl)cc1,77 to 79
4,CC(C)(c1ccc(OC#N)cc1)c1ccc(OC#N)cc1,82
5,CCOP(=S)(OCC)Oc1cc(C(=O)OC)sc1C(=O)OC,50
6,Cc1nnc2n1-c1ccc(Cl)cc1C(c1ccccc1F)=CC2,223 to 225
7,NCCOc1nc2ccccc2n1C1CCN(C2(c3ccccc3)CCCCCC2)CC1,180 to 184
8,NC(=O)OCC(O)Cn1oc2ccc(Cl)cc2c1=O (centres undefined),161 to 162
